27 molecules from patent US11590139B2, “Substituted aminopurine compounds, compositions thereof, and methods of treatment therewith” (Signal Pharmaceuticals, LLC, priority 2014, dated 2023) can be followed below.

SMILES strings stand for the structures.

The subject of one experiment is Lox-IMVI melanoma cell line. Description: Lox-IMVI anti-proliferative assay (growth inhibition, Cell Titer-Glo). Type of experiment: cell-based, human. The settings on record: Homo sapiens; IC50 activity level in the cell-based Lox-IMVI anti-proliferative assay; read-out: Activity. A digest of the protocol: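 Lox-IMVI cells in RPMI+10% FBS exposed 72 h at 37 °C to 10-point, 3-fold dilutions (0.5 nM–10 μM; 0.2% DMSO final), in duplicate. Viability by Cell Titer-Glo luminescence, with a t0 cell-number reading; data as % of DMSO control; IC50 from a four-parameter logistic fit.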
Background: In ATP-based viability assays light output follows the ATP content of the culture.
Turning to `C[C@@H]1CC[C@@H](Nc2ncc3nc(Nc4c(F)ccc(F)c4F)n([C@H]4CC[C@@H](C(N)=O)CC4)c3n2)C[C@H]1O` [Example 359, (1S,4s)-4-(2-((1R,3R,4R)-3-hydroxy-4-methylcyclohexylamino)-8-(2,3,6-trifluorophenylamino)-9H-purin-9-yl)cyclohexanecarboxamide], the IC50 was more than 1000 nM.
Still for that read-out and setting: next, `NC(=O)[C@H]1CC[C@@H](n2c(Nc3c(Cl)cc(F)cc3Cl)nc3cnc(NC4CCC(F)(F)CC4)nc32)CC1` [Example 201, (1s,4s)-4-(8-(2,6-dichloro-4-fluorophenylamino)-2-(4,4-difluorocyclohexylamino)-9H-purin-9-yl)cyclohexanecarboxamide]: 250 to 500 nM; `NC(=O)[C@H]1CC[C@@H](n2c(Nc3c(F)cc(F)cc3Cl)nc3cnc(N[C@@H]4CCC[C@H]4O)nc32)CC1` [Example 252, (1S,4s)-4-(8-(2-chloro-4,6-difluorophenylamino)-2-((1R,2R)-2-hydroxycyclopentylamino)-9H-purin-9-yl)cyclohexanecarboxamide]: more than 1000 nM; `NC(=O)[C@H]1CC[C@@H](n2c(Nc3c(Cl)cccc3Cl)nc3cnc(NC4CCC(F)(F)CC4)nc32)CC1` [Example 236, (1s,4s)-4-(8-(2,6-dichlorophenylamino)-2-(4,4-difluorocyclohexylamino)-9H-purin-9-yl)cyclohexanecarboxamide]: 250 to 500 nM.
As to `NC(=O)[C@H]1CC[C@@H](n2c(Nc3c(Cl)cc(Cl)cc3Cl)nc3cnc(N[C@@H]4CCCOC4)nc32)CC1` [Example 111, (1S,4s)-4-(2-((R)-tetrahydro-2H-pyran-3-ylamino)-8-(2,4,6-trichlorophenylamino)-9H-purin-9-yl)cyclohexanecarboxamide], the IC50 was more than 1000 nM.
In the case of `NC(=O)[C@H]1CC[C@@H](n2c(Nc3c(F)cc(Cl)cc3Cl)nc3cnc(N[C@H]4CCOC4)nc32)CC1` [Example 244, (1R,4s)-4-(8-(2,4-dichloro-6-fluorophenylamino)-2-((S)-tetrahydrofuran-3-ylamino)-9H-purin-9-yl)cyclohexanecarboxamide], the IC50 was in the range of 500 to 1000 nM.
With `NC(=O)[C@H]1CC[C@@H](n2c(Nc3c(F)cc(Cl)cc3Cl)nc3cnc(N[C@@H]4CC[C@@H](O)C4)nc32)CC1` [Example 213, (1S,4s)-4-(8-(2,4-dichloro-6-fluorophenylamino)-2-((1R,3R)-3-hydroxycyclopentylamino)-9H-purin-9-yl)cyclohexanecarboxamide], the IC50 was in the range of 250 to 500 nM.
The same measure, in the same setting: with `CO[C@H]1CC[C@H](Nc2ncc3nc(Nc4c(Cl)cc(Cl)cc4Cl)n([C@H]4CC[C@@H](C(N)=O)CC4)c3n2)CC1` [Example 77, (1s,4s)-4-(2-((1r,4r)-4-methoxycyclohexylamino)-8-(2,4,6-trichlorophenylamino)-9H-purin-9-yl)cyclohexanecarboxamide] the figure was 500 to 1000 nM; with `NC(=O)[C@H]1CC[C@@H](n2c(Nc3c(Cl)cc(Cl)cc3Cl)nc3cnc(N[C@H]4CCOC[C@H]4F)nc32)CC1` [Example 303, (1R,4s)-4-(2-((3S,4S)-3-fluorotetrahydro-2H-pyran-4-ylamino)-8-(2,4,6-trichlorophenylamino)-9H-purin-9-yl)cyclohexanecarboxamide], less than 250 nM; with `NC(=O)[C@H]1CC[C@@H](n2c(Nc3c(F)ccc(F)c3F)nc3cnc(NC4CCCC4)nc32)CC1` [Example 141, (1s,4s)-4-(2-(cyclopentylamino)-8-(2,3,6-trifluorophenylamino)-9H-purin-9-yl)cyclohexanecarboxamide], 500 to 1000 nM.
On to `C[C@@H]1CC[C@@H](Nc2ncc3nc(Nc4c(Cl)cccc4Cl)n([C@H]4CC[C@@H](C(N)=O)CC4)c3n2)C[C@H]1O` [Example 345, (1S,4s)-4-(8-(2,6-dichlorophenylamino)-2-((1R,3R,4R)-3-hydroxy-4-methylcyclohexylamino)-9H-purin-9-yl)cyclohexanecarboxamide], for which the IC50 was more than 1000 nM.

Still in this experiment, the particulars now being: Homo sapiens; Lox-IMVI anti-proliferative assay, IC50 activity level; read-out: Activity.
For `C[C@]1(C(N)=O)CC[C@@H](n2c(Nc3c(F)cc(Cl)cc3F)nc3cnc(NC4CCOCC4)nc32)CC1` [Example 521, (1s,4s)-4-(8-(4-chloro-2,6-difluorophenylamino)-2-(tetrahydro-2H-pyran-4-ylamino)-9H-purin-9-yl)-1-methylcyclohexanecarboxamide], the IC50 is less than 250 nM.
For `CC(C)Nc1ncc2nc(Nc3c(Cl)cc(C#N)cc3Cl)n([C@H]3CC[C@@H](C(N)=O)CC3)c2n1` [Example 431, (1s,4s)-4-(8-(2,6-dichloro-4-cyanophenylamino)-2-(isopropylamino)-9H-purin-9-yl)cyclohexanecarboxamide], the IC50 lay in the range of 500 to 1000 nM.
As to `C[C@]1(C(N)=O)CC[C@@H](n2c(Nc3c(F)cc(F)cc3Cl)nc3cnc(N[C@@H]4CCC[C@H](O)C4)nc32)CC1` [Example 576, (1S,4s)-4-(8-(2-chloro-4,6-difluorophenylamino)-2-((1R,3S)-3-hydroxycyclohexylamino)-9H-purin-9-yl)-1-methylcyclohexanecarboxamide], the IC50 lay within 250 to 500 nM.
As for `C[C@]1(C(N)=O)CC[C@@H](n2c(Nc3c(Cl)cc(C(F)(F)F)cc3Cl)nc3cnc(NC4CCCC4)nc32)CC1` [Example 562, (1s,4s)-4-(2-(cyclopentylamino)-8-(2,6-dichloro-4-(trifluoromethyl)phenylamino)-9H-purin-9-yl)-1-methylcyclohexanecarboxamide], the IC50 is more than 1000 nM.
In the case of `C[C@@H]1COCC[C@@H]1Nc1ncc2nc(Nc3c(Cl)cc(C#N)cc3Cl)n([C@H]3CC[C@@H](C(N)=O)CC3)c2n1` [Example 498, (1R,4s)-4-(8-(2,6-dichloro-4-cyanophenylamino)-2-((3S,4S)-3-methyltetrahydro-2H-pyran-4-ylamino)-9H-purin-9-yl)cyclohexanecarboxamide], the IC50 lay in the range of 250 to 500 nM.
As for `COC(=O)N1CCC[C@@H](Nc2ncc3nc(Nc4c(F)cc(Cl)cc4F)n([C@H]4CC[C@@H](C(N)=O)CC4)c3n2)C1` [Example 408, (R)-methyl 3-(9-((1s,4S)-4-carbamoylcyclohexyl)-8-(4-chloro-2,6-difluorophenylamino)-9H-purin-2-ylamino)piperidine-1-carboxylate], the IC50 was in the range of 500 to 1000 nM.
Still for that read-out and setting: next, `NC(=O)[C@H]1CC[C@@H](n2c(Nc3c(F)cc(F)cc3F)nc3cnc(N[C@@H]4CCCC[C@H](O)C4)nc32)CC1` [Example 434, (1S,4s)-4-(2-((1R,3S)-3-hydroxycycloheptylamino)-8-(2,4,6-trifluorophenylamino)-9H-purin-9-yl)cyclohexanecarboxamide]: more than 1000 nM; `C[C@]1(C(N)=O)CC[C@@H](n2c(Nc3c(F)cc(Cl)cc3F)nc3cnc(N[C@@H]4CCC[C@H](O)C4)nc32)CC1` [Example 566, (1S,4s)-4-(8-(4-chloro-2,6-difluorophenylamino)-2-((1R,3S)-3-hydroxycyclohexylamino)-9H-purin-9-yl)-1-methylcyclohexanecarboxamide]: 250 to 500 nM.
`NC(=O)[C@H]1CC[C@@H](n2c(Nc3c(F)cc(Cl)cc3Cl)nc3cnc(N[C@H](CO)C(F)(F)F)nc32)CC1` [Example 471, (1S,4s)-4-(8-(2,4-dichloro-6-fluorophenylamino)-2-((R)-1,1,1-trifluoro-3-hydroxypropan-2-ylamino)-9H-purin-9-yl)cyclohexanecarboxamide]: the IC50 was more than 1000 nM.

The experiment is the same for the next values; noted with them: Homo sapiens; Lox-IMVI melanoma cell line, anti-proliferative assay; read-out: Activity (IC50 activity level).
For `CS(=O)(=O)C1CC(Nc2ncc3nc(Nc4c(Cl)cc(Cl)cc4Cl)n([C@H]4CC[C@@H](C(N)=O)CC4)c3n2)C1` (stereo partly drawn) [Example 729, (1s,4s)-4-(2-(3-(methylsulfonyl)cyclobutylamino)-8-(2,4,6-trichlorophenylamino)-9H-purin-9-yl)cyclohexanecarboxamide], the IC50 was more than 1000 nM.
Consider `NC(=O)[C@H]1CC[C@@H](n2c(Nc3c(F)cc(Cl)cc3Cl)nc3cnc(N[C@@H]4CCOC[C@H]4F)nc32)CC1` [Example 728, (1S,4s)-4-(8-(2,4-dichloro-6-fluorophenylamino)-2-((3S,4R)-3-fluorotetrahydro-2H-pyran-4-ylamino)-9H-purin-9-yl)cyclohexanecarboxamide], for which the IC50 is less than 250 nM.
Regarding `C[C@]1(C(N)=O)CC[C@@H](n2c(Nc3c(Cl)cc(F)cc3Cl)nc3cnc(N[C@H]4CC[C@H](O)C4)nc32)CC1` [Example 647, (1R,4s)-4-(8-(2,6-dichloro-4-fluorophenylamino)-2-((1S,3S)-3-hydroxycyclopentylamino)-9H-purin-9-yl)-1-methylcyclohexanecarboxamide], the IC50 is 500 to 1000 nM.
For the molecule `CC(=O)N1CCC[C@@H](Nc2ncc3nc(Nc4c(Cl)cc(C#N)cc4Cl)n([C@H]4CC[C@@H](C(N)=O)CC4)c3n2)C1` [Example 712, (1S,4s)-4-(2-((R)-1-acetylpiperidin-3-ylamino)-8-(2,6-dichloro-4-cyanophenylamino)-9H-purin-9-yl)cyclohexanecarboxamide], the IC50 is more than 1000 nM.
Consider `C[C@]1(C(N)=O)CC[C@@H](n2c(Nc3c(Cl)cc(F)cc3Cl)nc3cnc(N[C@@H]4CC[C@@H](O)C4)nc32)CC1` [Example 638, (1S,4s)-4-(8-(2,6-dichloro-4-fluorophenylamino)-2-((1R,3R)-3-hydroxycyclopentylamino)-9H-purin-9-yl)-1-methylcyclohexanecarboxamide], for which the IC50 is less than 250 nM.
`C[C@@H]1COCC[C@H]1Nc1ncc2nc(Nc3c(F)cc(Cl)cc3Cl)n([C@H]3CC[C@@](C)(C(N)=O)CC3)c2n1` [Example 717, (1S,4s)-4-(8-(2,4-dichloro-6-fluorophenylamino)-2-((3S,4R)-3-methyltetrahydro-2H-pyran-4-ylamino)-9H-purin-9-yl)-1-methylcyclohexanecarboxamide]: the IC50 is less than 250 nM.
The same measure, in the same setting: next, `C[C@]1(C(N)=O)CC[C@@H](n2c(Nc3c(Cl)cc(Cl)cc3Cl)nc3cnc(N[C@@H]4CC[C@@H](O)C4)nc32)CC1` [Example 636, (1S,4s)-4-(2-((1R,3R)-3-hydroxycyclopentylamino)-8-(2,4,6-trichlorophenylamino)-9H-purin-9-yl)-1-methylcyclohexanecarboxamide]: less than 250 nM.
